# Experimental data reported in patent US10906897B2, “Microbiocidal heterobicyclic derivatives” (priority 2015, dated 2021).
# Experiments:
# [1] = system: Glomerella lagenarium (Colletotrichum lagenarium); assay: Glomerella lagenarium (Colletotrichum lagenarium) / liquid culture (Anthracnose); assay type: cell-based; settings: Colletotrichum orbiculare, growth inhibition photometrically 3-4 days after application, compared to untreated control
# [2] = system: Botryotinia fuckeliana (Botrytis cinerea); assay: Botryotinia fuckeliana (Botrytis cinerea) / liquid culture (Gray mould); assay type: cell-based; settings: growth inhibition photometrically 3-4 days after application, compared to untreated control
SMILES,melting point,inhibition of growth at 20 ppm [1],inhibition of growth at 20 ppm [2]
CC1(C)N=C(c2cnc3c(F)cccn23)c2cccc(Cl)c2C1Br (stereo not drawn),213 to 214 °C,,
CC1(C)N=C(c2cnc3c(F)cccn23)c2cccc(F)c2C1Br (stereo not drawn),211 to 212 °C,,
CC1(C)N=C(c2cnc3c(F)cccn23)c2cccc(F)c2C1=O,160 to 161 °C,,
CC1(C)N=C(c2cnc3ccc(O)cn23)c2cccc(F)c2C1(C)C,321 to 322 °C,,
CC1(C)N=C(c2cnc3c(Br)cccn23)c2cccc(F)c2C1Br (stereo not drawn),217 to 218 °C,,
CC1(C)N=C(c2cnc3c(Br)cccn23)c2cccc(F)c2C1O (stereo not drawn),204 to 205 °C,,
CC1(C)N=C(c2cnc3c(Br)cccn23)c2cccc(F)c2C1=O,146 to 147 °C,,
CC1(C)N=C(c2cnc3ccc(F)cn23)c2cccc(F)c2C1(C)C,200 to 202 °C,,
CC1(C)N=C(c2cnc3c(Br)cccn23)c2ccccc2C1=O,204 to 205 °C,,
CC1(C)N=C(c2cnc3c(Br)cccn23)c2ccccc2C1(F)F,173 °C,,
CC1(C)Cc2c(Cl)cccc2C(c2cnc3ccc(F)cn23)=N1,142 to 143 °C,,
CC1(C)Cc2ccccc2C(c2cnc3cc(I)ccn23)=N1,190 to 193 °C,,
Cc1cccn2ncc(C3=NC(C)(C)C(=O)c4c(F)cccc43)c12,141 to 143 °C,,
CC1(C)N=C(c2cnn3cccc(Br)c23)c2ccccc2C1=O,148 to 151 °C,,
Cc1ccc2c(C3=NC(C)(C)C(F)(F)c4ccccc43)cnn2c1C,160 to 161 °C,,
"CC1(C)N=C(c2cnc3ccccn23)c2cc(F)ccc2C1(C)C [Compound E-2, 7-fluoro-1-imidazo[1,2-a]pyridin-3-yl-3,3,4,4-tetramethyl-isoquinoline]",,≥ 80%,
"CC1(C)Cc2c(Cl)cccc2C(c2cnc3ccccn23)=N1 [Compound E-3, 5-chloro-1-imidazo[1,2-a]pyridin-3-yl-3,3-dimethyl-4H-isoquinoline]",,≥ 80%,
"CC1(C)N=C(c2cnc3c(OC(F)F)cccn23)c2cccc(F)c2C1(C)C [Compound E-7, 1-[8-(difluoromethoxy)imidazo [1,2-a]pyridin-3-yl]-5-fluoro-3,3,4,4-tetramethyl-isoquinoline]",121 to 122 °C,≥ 80%,≥ 80%

SMILES,melting point,inhibition of growth at 20 ppm [1],inhibition of growth at 20 ppm [2]
"CC1(C)Cc2c(F)cccc2C(c2cnc3c(F)cccn23)=N1 [Compound E-10, 5-fluoro-1-(8-fluoroimidazo[1,2-a]pyridin-3-yl)-3,3-dimethyl-4H-isoquinoline]",,≥ 80%,≥ 80%
"CC1(C)Cc2c(Cl)cccc2C(c2cnc3c(F)cccn23)=N1 [Compound E-11, 5-chloro-1-(8-fluoroimidazo[1,2-a]pyridin-3-yl)-3,3-dimethyl-4H-isoquinoline]",122 to 123 °C,≥ 80%,≥ 80%
"CC1(C)N=C(c2cnc3c(F)cccn23)c2cccc(F)c2C1O (stereo not drawn) [Compound E-14, 5-fluoro-1-(8-fluoroimidazo[1,2-a]pyridin-3-yl)-3,3-dimethyl-4H-isoquinolin-4-ol]",219 °C,≥ 80%,
"CC1(C)Cc2c(F)cccc2C(c2cnc3c(Br)cccn23)=N1 [Compound E-16, 1-(8-bromoimidazo[1,2-a]pyridin-3-yl)-5-fluoro-3,3-dimethyl-4H-isoquinoline]",179 to 181 °C,≥ 80%,
"CSc1cccn2c(C3=NC(C)(C)Cc4c(F)cccc43)cnc12 [Compound E-17, 5-fluoro-3,3-dimethyl-1-(8-methylsulfanyl-imidazo[1,2-a]pyridin-3-yl)-4H-isoquinoline]",119 to 120 °C,≥ 80%,
"CC1(C)N=C(c2cnc3c(F)cccn23)c2cccc(F)c2C1(F)F [Compound E-19, 4,4,5-trifluoro-1-(8-fluoroimidazo[1,2-a]pyridin-3-yl)-3,3-dimethyl-isoquinoline]",145 to 146 °C,≥ 80%,≥ 80%
"C#Cc1cccn2c(C3=NC(C)(C)C(C)(C)c4c(F)cccc43)cnc12 [Compound E-23, 1-(8-ethynylimidazo[1,2-a]pyridin-3-yl)-5-fluoro-3,3,4,4-tetramethyl-isoquinoline]",169 to 170 °C,,≥ 80%
"CC1(C)N=C(c2cnc3c(O)cccn23)c2cccc(F)c2C1(C)C [Compound E-27, 3-(5-fluoro-3,3,4,4-tetramethyl-1-isoquinolyl)imidazo[1,2-a]pyridin-8-ol]",271 to 272 °C,≥ 80%,≥ 80%
"Cc1cccc2ncc(C3=NC(C)(C)C(C)(C)c4c(F)cccc43)n12 [Compound E-30, 5-fluoro-3,3,4,4-tetramethyl-1-(5-methylimidazo[1,2-a]pyridin-3-yl)isoquinoline]",139 to 140 °C,≥ 80%,≥ 80%
"Cc1nc2c(C)cccn2c1C1=NC(C)(C)C(C)(C)c2c(F)cccc21 [Compound E-40, 1-(2,8-dimethylimidazo[1,2-a]pyridin-3-yl)-5-fluoro-3,3,4,4-tetramethyl-isoquinoline]",,≥ 80%,≥ 80%
"CC1(C)N=C(c2cnc3cc(C#N)ccn23)c2cccc(F)c2C1(C)C [Compound E-46, 3-(5-fluoro-3,3,4,4-tetramethyl-1-isoquinolyl)imidazo[1,2-a]pyridine-7-carbonitrile]",193 to 194 °C,≥ 80%,≥ 80%
"COc1ccn2c(C3=NC(C)(C)C(C)(C)c4c(F)cccc43)cnc2c1 [Compound E-48, 5-fluoro-1-(7-methoxyimidazo[1,2-a]pyridin-3-yl)-3,3,4,4-tetramethyl-isoquinoline]",139 to 140 °C,≥ 80%,≥ 80%
"CC1(C)N=C(c2cnc3cc(O)ccn23)c2cccc(F)c2C1(C)C [Compound E-49, 3-(5-fluoro-3,3,4,4-tetramethyl-1-isoquinolyl)imidazo[1,2-a]pyridin-7-ol]",246 to 247 °C,≥ 80%,≥ 80%
"CC1(C)Cc2c(Br)cccc2C(c2cnn3ccccc23)=N1 [Compound E-60, 5-bromo-3,3-dimethyl-1-pyrazolo[1,5-a]pyridin-3-yl-4H-isoquinoline]",,,≥ 80%
"Cc1nn2ccccc2c1C1=NC(C)(C)C(C)(C)c2c(F)cccc21 [Compound E-62, 5-fluoro-3,3,4,4-tetramethyl-1-(2-methylpyrazolo[1,5-a]pyridin-3-yl)isoquinoline]",,≥ 80%,≥ 80%
"Cc1cccn2ncc(C3=NC(C)(C)C(=O)c4ccccc43)c12 [Compound E-68, 3,3-dimethyl-1-(4-methylpyrazolo[1,5-a]pyridin-3-yl)isoquinolin-4-one]",140 to 141 °C,,≥ 80%
"Cc1cccn2ncc(C3=NC(C)(C)C(=O)c4cc(F)ccc43)c12 [Compound E-75, 6-fluoro-3,3-dimethyl-1-(4-methylpyrazolo[1,5-a]pyridin-3-yl)isoquinolin-4-one]",180 to 183 °C,,≥ 80%
